The values below are quoted from earlier work in article PMC12308805, “Ultrahigh-Throughput Virtual Screening Strategies against PPI Targets: A Case Study of STAT Inhibitors” (Journal of Chemical Information and Modeling, 2025).

One data set relates to STAT3. Conditions: sheet 6QHD_actives_decoys; retrospective screening set for STAT3 SH2 domain (PDB 6QHD); […]; ref DUD-E; cited from earlier work.
Turning to `CCOc1ccc(NS(=O)(=O)c2ccc3c(c2)CC(=O)N3)cc1S(=O)(=O)N1CCCC1` [Decoy537], the Type entry is “Inactive (Decoy)”. With `COc1ccc(NS(=O)(=O)c2ccc(OC)c(NS(=O)(=O)c3ccc(C#N)cc3)c2)cc1` [Decoy542], the Type result was “Inactive (Decoy)”.

The same data set, now with this note: sheet 6QHD_actives_decoys; retrospective screening set for STAT3 SH2 domain (PDB 6QHD); decoys generated with DUD-E and presumed inactive, not tested; ref DUD-E; cited from earlier work.
As to `CCOc1ccc(S(=O)(=O)NC[C@@H](c2cccnc2)S(=O)(=O)c2ccc(OCC)cc2)cc1` [Decoy534], the Type result is listed as “Inactive (Decoy)”. With `CC1(C)CC[C@]2(C(=O)O[C@@H]3O[C@H](CO)[C@@H](O)[C@H](O)[C@H]3O)[C@H](O)C[C@]3(C)C(=CC[C@@H]4[C@@]5(C)CC[C@H](O[C@@H]6OC[C@H](O)[C@H](O)[C@H]6O)[C@@](C)(CO)[C@@H]5CC[C@]43C)[C@@H]2C1` [Decoy535], the Type result was “Inactive (Decoy)”. On to `CC(C)(C)OC(=O)N[C@H](CSSC[C@@H](NC(=O)OC(C)(C)C)C(=O)OC[C@H]1O[C@H](O)[C@@H](O)[C@@H](O)[C@H]1O)C(=O)OC[C@H]1O[C@H](O)[C@@H](O)[C@@H](O)[C@H]1O` [Decoy536], for which the Type entry was “Inactive (Decoy)”. Take `COc1ccccc1NS(=O)(=O)c1ccc(O)c(C(=O)OCC(=O)c2ccc3c(c2)NC(=O)CO3)c1` [Decoy538]: the Type result was “Inactive (Decoy)”.

`CC1(C)NC(=O)N(C[C@@H](O)COc2ccc(-c3ccc(OC[C@H](O)CN4C(=O)NC(C)(C)C4=O)cc3)cc2)C1=O` [Decoy539]: the Type entry is “Inactive (Decoy)”. As to `CCCNC(=O)CN1CCN(c2cc(C(=O)O)c3cc(NS(=O)(=O)c4cccs4)ccc3n2)CC1` [Decoy543], the Type result is reported as “Inactive (Decoy)”.

In the case of `CC1=C(/C(O)=N/c2ccc(S(N)(=O)=O)cc2)[C@@H](c2ccco2)C(C#N)=C(SCC(=O)Nc2ccc(F)cc2)N1` [Decoy544], the Type entry was “Inactive (Decoy)”.

`CC(=O)OC[C@@H]1O[C@H](n2c(=O)[nH]c(=O)c3n[nH]nc32)[C@@H](OC(C)=O)[C@H](OC(C)=O)[C@H]1OC(C)=O` [Decoy545]: the Type entry is “Inactive (Decoy)”.

As to `O=C(O)CCCNC(=O)C(NC(=O)CCSSCCNC(=O)CCCC[C@@H]1SC[C@@H]2NC(=O)N[C@@H]21)C(=O)NCCCC(=O)O` [Decoy546], the Type result is on record as “Inactive (Decoy)”. For `CO[C@@H]1O[C@@H]2CO[C@@H](c3ccccc3)O[C@H]2[C@H](O[C@@H]2O[C@H](COC(C)=O)[C@H](OC(C)=O)[C@H](OC(C)=O)[C@H]2OC(C)=O)[C@H]1NC(C)=O` [Decoy547], the Type entry was “Inactive (Decoy)”. Take `O=P(O)(O)CCN1CCCN(CCP(=O)(O)O)CCN(CCP(=O)(O)O)CCCN(CCP(=O)(O)O)CC1` [Decoy548]: the Type result is given as “Inactive (Decoy)”. Turning to `COc1ccc(CCC(=O)O)c([C@H](CC(=O)O)C(=O)O)c1OS(=O)(=O)c1ccc(C)cc1` [Decoy549], the Type entry is reported as “Inactive (Decoy)”. For `COc1ccc(-n2c(=O)[nH]c3cc([C@@H]4N[C@@H](c5ccc(OC)c(OC)c5)NO4)ccc3c2=O)cc1` [Decoy550], the Type entry is “Inactive (Decoy)”.

As to `CCOc1cc(/C=N/N=C2\NC(=O)[C@@H](CC(=O)O)S2)cc(Br)c1OS(=O)(=O)c1ccc(C)cc1` [Decoy551], the Type entry was “Inactive (Decoy)”. In the case of `CCOC(=O)c1ccc(/N=C2\S[C@@H](CC(=O)Nc3ccc(C(=O)OCC)cc3)C(=O)N2CCc2ccc(Cl)cc2)cc1` [Decoy552], the Type result is “Inactive (Decoy)”. On to `CCOC(=O)c1ccc(/N=C2\S[C@H](CC(=O)Nc3ccc(C(=O)OCC)cc3)C(=O)N2CCc2ccc(Cl)cc2)cc1` [Decoy553], for which the Type result is given as “Inactive (Decoy)”.

Consider `C=CCn1c(SCC(=O)Nc2sc(C(=O)OCC)c(C)c2C(=O)OCC)nc2sc3c(c2c1=O)CCCC3` [Decoy554], for which the Type result is “Inactive (Decoy)”.

For `O=S(=O)(O)c1cc(S(=O)(=O)O)c2c(/N=N/c3ccc([C@H](c4ccc(/N=N/c5ccc(O)cc5)cc4)C4CCCCC4)cc3)c(O)ccc2c1` [Decoy555], the Type result is “Inactive (Decoy)”.

On to `COc1cc(-c2c(-c3cc(Br)c(O)c(OC)c3)oc(/C=N/NC(=O)C[N+](C)(C)C)c2[N+](=O)[O-])cc(Br)c1[O-]` [Decoy556], for which the Type entry is recorded as “Inactive (Decoy)”.
